From patent publication US10077261B2, “Imidazolin-5-one derivative useful as FASN inhibitors for the treatment of cancer” (Janssen Pharmaceutica NV, priority 2012, dated 2018)

Experiments:
[1] = molecular target: T1, hFASN enzyme (full length) (Homo sapiens, UniProt P49327); experiment: Fatty Acid Synthase (FASN) inhibition scintillation proximity assay; assay type: biochemical; details: for inhibition at 10 µM: read-out: Human FASN % inhibition @ 10 μM, 10 μM test compound; for IC50: read-out: Human FASN pIC50 (converted)
T1 construct: 10 μL hFASN enzyme (full length, 300 ng, purified in house); made in house
Method in brief: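 Full-length in-house purified enzyme (300 ng) was tested in 100 mM KH2PO4 pH 7.5, 1 mM DTT with ³H-acetyl-CoA and malonyl-CoA as substrates; compounds ranged 0.01–30 μM. Reactions were stopped with streptavidin imaging beads, read by LEADseeker at 610 nm, and fitted to a 4-parameter logistic curve.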

A2780 ovarian cells [2] = experiment: A2780 ovarian cell proliferation assay in lipid reduced medium, with palmitate (MTT); assay type: cell-based; details: Homo sapiens, A2780, 96 h; read-out: pIC50 A2780 Ovarian Cell, With Palmitate (converted)
Method in brief: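 Seeded cells were switched next day to lipid-reduced serum, exposed to compound and 25 μM palmitate complexed with fatty-acid-free BSA, and incubated 96 h. Proliferation was then determined by MTT absorbance at 544 nm, with a best-fit curve of signal against concentration.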

A2780 ovarian cells [3] = experiment: A2780 ovarian cell proliferation assay in lipid reduced medium, without palmitate (MTT); assay type: cell-based; details: Homo sapiens, A2780, 96 h; read-out: pIC50 A2780 Ovarian Cell, Without Palmitate (converted)
[4] = system: LNCaP-Vancouver prostate cells; experiment: In vitro LNCaP Vancouver prostate cell proliferation assay in lipid reduced medium; assay type: cell-based; details: read-out: pIC50 LNCaP_Vancouver prostate cell (converted)
[5] = system: PC-3M-Luc-C6 prostate cells; experiment: In vitro PC-3M-Luc-C6 prostate cell proliferation assay in lipid reduced medium; assay type: cell-based; details: 96 h, read-out: pIC50 PC-3M-Luc-C6 prostate cell (converted)
[6] = molecular target: Fatty Acid Synthase Keto-reductase Domain (FASN KR) (Homo sapiens, UniProt P49327); experiment: Fatty Acid Synthase keto-reductase domain (FASN KR) inhibition, NADPH oxidation at 340 nm
Sequence of Fatty Acid Synthase Keto-reductase Domain (FASN KR) (P49327 whole entry, the tested form may be a part): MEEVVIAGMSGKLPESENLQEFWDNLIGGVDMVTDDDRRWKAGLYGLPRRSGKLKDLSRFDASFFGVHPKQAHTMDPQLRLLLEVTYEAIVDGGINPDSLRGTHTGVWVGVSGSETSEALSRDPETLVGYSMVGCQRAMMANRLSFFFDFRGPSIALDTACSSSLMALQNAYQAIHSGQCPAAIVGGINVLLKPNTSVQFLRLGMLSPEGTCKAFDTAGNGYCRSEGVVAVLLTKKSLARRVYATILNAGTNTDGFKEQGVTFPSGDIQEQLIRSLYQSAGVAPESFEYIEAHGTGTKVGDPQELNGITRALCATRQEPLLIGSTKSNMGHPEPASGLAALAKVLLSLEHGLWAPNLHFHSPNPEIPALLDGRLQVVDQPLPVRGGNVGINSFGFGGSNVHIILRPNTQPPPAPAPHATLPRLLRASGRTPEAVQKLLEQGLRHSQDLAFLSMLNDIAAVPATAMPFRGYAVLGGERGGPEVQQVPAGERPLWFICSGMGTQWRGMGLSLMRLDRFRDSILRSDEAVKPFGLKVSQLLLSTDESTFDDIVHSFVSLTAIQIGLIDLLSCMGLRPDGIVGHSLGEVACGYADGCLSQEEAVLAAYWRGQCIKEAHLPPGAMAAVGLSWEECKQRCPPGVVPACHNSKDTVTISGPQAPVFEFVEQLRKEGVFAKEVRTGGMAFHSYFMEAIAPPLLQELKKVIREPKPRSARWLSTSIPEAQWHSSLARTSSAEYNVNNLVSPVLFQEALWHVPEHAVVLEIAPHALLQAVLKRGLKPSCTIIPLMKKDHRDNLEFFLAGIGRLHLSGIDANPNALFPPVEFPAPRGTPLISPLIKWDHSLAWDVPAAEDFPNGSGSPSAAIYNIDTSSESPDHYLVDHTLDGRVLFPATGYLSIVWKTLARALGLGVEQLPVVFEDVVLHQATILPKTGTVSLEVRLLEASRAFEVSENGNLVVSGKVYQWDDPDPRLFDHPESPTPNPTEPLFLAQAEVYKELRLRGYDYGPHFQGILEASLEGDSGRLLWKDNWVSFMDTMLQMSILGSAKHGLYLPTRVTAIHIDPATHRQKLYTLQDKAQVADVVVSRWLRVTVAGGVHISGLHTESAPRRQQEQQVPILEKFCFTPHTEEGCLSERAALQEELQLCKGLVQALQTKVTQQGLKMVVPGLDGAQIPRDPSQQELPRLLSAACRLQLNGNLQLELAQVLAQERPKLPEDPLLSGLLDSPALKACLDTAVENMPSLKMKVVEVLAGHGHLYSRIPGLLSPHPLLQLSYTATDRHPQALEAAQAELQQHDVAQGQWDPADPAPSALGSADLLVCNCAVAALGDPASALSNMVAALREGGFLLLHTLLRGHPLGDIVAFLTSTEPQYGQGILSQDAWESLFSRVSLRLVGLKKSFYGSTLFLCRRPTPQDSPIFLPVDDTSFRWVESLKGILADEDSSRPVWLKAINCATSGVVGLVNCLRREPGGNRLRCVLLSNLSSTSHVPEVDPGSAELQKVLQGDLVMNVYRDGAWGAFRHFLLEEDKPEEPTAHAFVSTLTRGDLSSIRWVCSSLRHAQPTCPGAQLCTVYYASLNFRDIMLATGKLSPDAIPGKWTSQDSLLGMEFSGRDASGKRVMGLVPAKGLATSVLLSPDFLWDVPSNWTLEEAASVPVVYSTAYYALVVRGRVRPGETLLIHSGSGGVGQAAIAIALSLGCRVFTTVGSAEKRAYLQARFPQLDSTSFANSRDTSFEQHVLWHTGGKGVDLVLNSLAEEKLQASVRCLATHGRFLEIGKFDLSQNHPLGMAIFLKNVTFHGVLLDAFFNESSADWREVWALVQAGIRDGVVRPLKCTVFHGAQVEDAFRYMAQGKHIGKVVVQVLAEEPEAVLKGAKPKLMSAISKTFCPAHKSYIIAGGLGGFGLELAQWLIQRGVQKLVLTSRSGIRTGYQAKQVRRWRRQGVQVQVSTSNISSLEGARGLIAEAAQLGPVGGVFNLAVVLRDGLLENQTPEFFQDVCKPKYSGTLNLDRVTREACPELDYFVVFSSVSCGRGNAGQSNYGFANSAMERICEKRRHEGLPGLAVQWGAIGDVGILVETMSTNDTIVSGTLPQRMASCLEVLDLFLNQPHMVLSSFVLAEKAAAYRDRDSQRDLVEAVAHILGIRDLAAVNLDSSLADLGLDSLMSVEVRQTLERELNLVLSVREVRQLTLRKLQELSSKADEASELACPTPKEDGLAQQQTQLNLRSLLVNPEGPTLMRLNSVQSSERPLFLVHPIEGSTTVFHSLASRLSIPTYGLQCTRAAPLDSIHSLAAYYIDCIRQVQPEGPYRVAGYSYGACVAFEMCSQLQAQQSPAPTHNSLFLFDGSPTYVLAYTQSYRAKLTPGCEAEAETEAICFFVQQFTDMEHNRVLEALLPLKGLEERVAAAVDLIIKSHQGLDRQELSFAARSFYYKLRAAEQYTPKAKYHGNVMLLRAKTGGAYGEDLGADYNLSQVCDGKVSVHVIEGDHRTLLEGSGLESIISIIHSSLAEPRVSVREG
Procedure: After 20 minutes incubation at room temperature the plate was measured again (T2).
The decrease in absorbance was calculated as (Absorbance before incubation T1)−(Absorbance following incubation T2).
A plot of Controlmin versus test compound concentration was fitted to a 4-parameter logistic curve using a non-linear least squares regression method.

T1 sequence (P49327 whole entry): as the sequence (P49327 whole entry, the tested form may be a part) above

Compound	inhibition at 10 µM [1]	IC50 [1]	IC50 (A2780 ovarian cells [2])	IC50 (A2780 ovarian cells [3])	IC50 [4]	IC50 [5]	IC50 [6]
Cc1sc2ccc(-c3ccc(C4=NC5(CCN(CCO)CC5)C(=O)N4C[C@@H]4CCN(C(=O)C5CC5)C4)cc3)cc2c1C [compound 742, 3-{[(3R)-1-(Cyclopropylcarbonyl)pyrrolidin-3-yl]methyl}-2-[4-(2,3-dimethyl-1-benzothiophen-5-yl)phenyl]-8-(2-hydroxyethyl)-1,3,8-triazaspiro[4.5]dec-1-en-4-one]	99%	191 nM	~6030 nM	~2510 nM	~4470 nM	~1740 nM	355 nM
Cc1oc2ccc(-c3ccc(C4=NC5(CC5)C(=O)N4C[C@@H]4CCN(C(=O)C5CC5)C4)c(F)c3)cc2c1C [compound 244, (R)-6-((1-(cyclopropanecarbonyl)pyrrolidin-3-yl)methyl)-5-(4-(2,3-dimethylbenzofuran-5-yl)-2-fluorophenyl)-4,6-diazaspiro[2.4]hept-4-en-7-one]	101%	56.2 nM	> 10000 nM	~2240 nM	1820 nM	~1410 nM	56.2 nM
O=C(C1CC1)N1CC[C@@H](CN2C(=O)C3(CC3)N=C2c2ccc(-c3ccc4cc[nH]c4c3)cc2F)C1 [compound 247, (R)-6-((1-(cyclopropanecarbonyl)pyrrolidin-3-yl)methyl)-5-(2-fluoro-4-(1H-indol-6-yl)phenyl)-4,6-diazaspiro[2.4]hept-4-en-7-one]	103%	16.2 nM	> 10000 nM	5.01 nM	23.4 nM	7.24 nM	17.8 nM
Cc1cc2cc(-c3ccc(C4=NC5(CC5)C(=O)N4C[C@@H]4CCN(C(=O)C5CC5)C4)c(F)c3)ccc2s1 [compound 243, (R)-6-((1-(cyclopropanecarbonyl)pyrrolidin-3-yl)methyl)-5-(2-fluoro-4-(2-methylbenzo[b]thiophen-5-yl)phenyl)-4,6-diazaspiro[2.4]hept-4-en-7-one]	104%	22.4 nM	> 6170 nM	646 nM	832 nM	~240 nM	41.7 nM
Cc1cc(-c2ccc(-c3ccnn3C)cc2)ccc1C1=NC2(CC2)C(=O)N1C[C@@H]1CCN(C(=O)C2(C)CC2)C1 [compound 623, 6-({(3R)-1-[(1-Methylcyclopropyl)carbonyl]pyrrolidin-3-yl}methyl)-5-[3-methyl-4′-(1-methyl-1H-pyrazol-5-yl)biphenyl-4-yl]-4,6-diazaspiro[2.4]hept-4-en-7-one]	101%	145 nM	5130 nM	~32.4 nM	562 nM	123 nM	234 nM
O=C(C1CC1)N1CC[C@@H](CN2C(=O)C3(CC3)N=C2c2ccc(-c3ccc4c(c3)N=CC4)s2)C1 [compound 426, 6-{[(3R)-1-(Cyclopropylcarbonyl)pyrrolidin-3-yl]methyl}-5-[5-(3H-indol-6-yl)thiophen-2-yl]-4,6-diazaspiro[2.4]hept-4-en-7-one]	94%	347 nM	> 10000 nM	2340 nM	2340 nM	1740 nM	708 nM
O=C(N1CC(CN2C(=O)C3(CC3)N=C2c2ccc(-c3ccc4cc(F)ccc4c3)cc2F)C1)C1(O)CC1 [compound 365, 5-(2-fluoro-4-(6-fluoronaphthalen-2-yl)phenyl)-6-((1-(1-hydroxycyclopropanecarbonyl)azetidin-3-yl)methyl)-4,6-diazaspiro[2.4]hept-4-en-7-one]	97%	23.4 nM	~10000 nM	6.46 nM	56.2 nM	7.59 nM	53.7 nM
O=C(C1CC1)N1CC[C@@H](CN2C(=O)C3(CC3)N=C2c2ccc(-c3ccc4[nH]c(CO)cc4c3)cc2)C1 [compound 216, (R)-6-((1-(cyclopropanecarbonyl)pyrrolidin-3-yl)methyl)-5-(4-(2-(hydroxymethyl)-1H-indol-5-yl)phenyl)-4,6-diazaspiro[2.4]hept-4-enn-7-one]	102%	28.8 nM	> 10000 nM	63.1 nM	162 nM	~53.7 nM	49 nM
Cn1nc(CO)c2ccc(-c3ccc(C4=NC5(CC5)C(=O)N4C[C@@H]4CCN(C(=O)C5CC5)C4)cc3)cc21 [compound 485, 6-{[(3R)-1-(Cyclopropylcarbonyl)pyrrolidin-3-yl]methyl}-5-{4-[3-(hydroxymethyl)-1-methyl-1H-indazol-6-yl]phenyl}-4,6-diazaspiro[2.4]hept-4-en-7-one]	96%	162 nM	> 10000 nM	~123 nM	631 nM	214 nM	302 nM
O=C(C1CC1)N1CC[C@@H](CN2C(=O)C3(CC3)N=C2c2ccc(-c3ccc4sccc4c3)c(F)c2)C1 [compound 233, (R)-5-(4-(benzo[b]thiophen-5-yl)-3-fluorophenyl)-6-((1-(cyclopropanecarbonyl)pyrrolidin-3-yl)methyl)-4,6-diazaspiro[2.4]hept-4-en-7-one]	110%	50.1 nM	> 10000 nM	912 nM	1700 nM	575 nM	93.3 nM
Cc1ccnc2cc(-c3ccc(C4=NC5(CC5)C(=O)N4CC4CN(C(=O)C5CC5)C4)cc3)ccc12 [compound 554, 6-{[1-(Cyclopropylcarbonyl)azetidin-3-yl]methyl}-5-[4-(4-methylquinolin-7-yl)phenyl]-4,6-diazaspiro[2.4]hept-4-en-7-one]	97%	129 nM	7760 nM	~145 nM	646 nM	~174 nM	269 nM

Further lines, results first:

inhibition at 10 µM [1]	IC50 [1]	IC50 (A2780 ovarian cells [2])	IC50 (A2780 ovarian cells [3])	IC50 [4]	IC50 [5]	IC50 [6]	Compound
98%	417 nM	> 10000 nM	~603 nM	2240 nM	501 nM	1200 nM	Cc1cc(-c2nn(C)c3ccccc23)ccc1C1=NC2(CC2)C(=O)N1CC1CN(C(=O)C2(C)CC2)C1 [compound 600, 6-({1-[(1-Methylcyclopropyl)carbonyl]azetidin-3-yl}methyl)-5-[2-methyl-4-(1-methyl-1H-indazol-3-yl)phenyl]-4,6-diazaspiro[2.4]hept-4-en-7-one]
98%	55 nM	> 10000 nM	~33.1 nM	537 nM	~339 nM	178 nM	Cc1cc(-c2ccc(-c3cnn(C)c3)cc2)ccc1C1=NC2(CC2)C(=O)N1CC1CN(C(=O)C2CC2)C1 [compound 333, 6-((1-(cyclopropanecarbonyl)azetidin-3-yl)methyl)-5-(3-methyl-4′-(1-methyl-1H-pyrazol-4-yl)-[1,1′-biphenyl]-4-yl)-4,6-diazaspiro[2.4]hept-4-en-7-one]
96%	186 nM	6310 nM	~562 nM	2510 nM	724 nM	708 nM	Cc1nc2ccc(-c3ccc(C4=NC5(CC5)C(=O)N4CC4CN(C(=O)C5CC5)C4)c(F)c3)cc2s1 [compound 558, 6-{[1-(Cyclopropylcarbonyl)azetidin-3-yl]methyl}-5-[2-fluoro-4-(2-methyl-1,3-benzothiazol-6-yl)phenyl]-4,6-diazaspiro[2.4]hept-4-en-7-one]
88%	214 nM	> 10000 nM	302 nM	1550 nM	575 nM	501 nM	Cc1cc(-c2ccc3c(cnn3C)c2)ccc1C1=NC2(CC2)C(=O)N1CC1CN(C(=O)N(C)C)C1 [compound 488, N,N-Dimethyl-3-({5-[2-methyl-4-(1-methyl-1H-indazol-5-yl)phenyl]-7-oxo-4,6-diazaspiro[2.4]hept-4-en-6-yl}methyl)azetidine-1-carboxamide]
100%	87.1 nM	> 10000 nM	126 nM	692 nM	178 nM	245 nM	Cc1cc(-c2ccc3c(cnn3C)c2)ccc1C1=NC2(CC2)C(=O)N1CC1CN(C(=O)C2CC2)C1 [compound 292, 6-((1-(cyclopropanecarbonyl)azetidin-3-yl)methyl)-5-(2-methyl-4-(1-methyl-1H-indazol-5-yl)phenyl)-4,6-diazaspiro[2.4]hept-4-en-7-one]
105%	64.6 nM	> 10000 nM	138 nM	603 nM	~115 nM	166 nM	Cc1cc(-c2ccc3cnn(C)c3c2)ccc1C1=NC2(CC2)C(=O)N1CC1CN(C(=O)C2(C)CC2)C1 [compound 335, 5-(2-methyl-4-(1-methyl-1H-indazol-6-yl)phenyl)-6-((1-(1-methylcyclopropanecarbonyl)azetidin-3-yl)methyl)-4,6-diazaspiro[2.4]hept-4-en-7-one]
